Laboratory results from patent US20110105959A1, “Novel Methods for Bone Treatment by Modulating an Arachidonic Acid Metabolic or Signaling Pathway” (ACCELALOX, INC., priority 2008, published 2011).

Columns and labels:
[1] = tested on: 5-lipoxygenase or LTA4 hydrolase activity measured by the level of LTB4 in platelet-rich plasma; assay: Ex vivo treatment of platelet-rich plasma, leukotriene B4 levels by enzyme-linked immune-assay; format: cell-based, rat; settings: FIG. 9; 1 ug/ml; activated with thrombin and calcium chloride
Description: Platelet-rich plasma is used clinically to augment fracture healing and other osteogenic processes [Wrotniak et al. Current opinion about using the platelet-rich gel in orthopaedics and trauma surgery. […] Platelet-rich plasma is enriched with platelets and white blood cells from whole blood by centrifugal separation. White blood cells, such as, macrophages, monocytes, and neutrophils, are a major source of 5-lipoxygenase activity [Woods et al. 5-lipoxygenase and 5-lipoxygenase-activating protein are localized in the nuclear envelope of activated human leukocytes.
Male Sprague-Dawley rats (450-500 g body weight) were used. Platelet-rich plasma was prepared as described previously using differential centrifugation [Gandhi et al. The effects of local platelet rich plasma delivery on diabetic fracture healing. […] Five minutes after drug treatment, the treated platelet-rich plasma was activated by addition of thrombin (100 units/ml) and calcium chloride (10 mg/ml) followed by incubation for 15 minutes at 37° C. The reaction was stopped and the platelet-rich plasma was separated by high-speed centrifugation (14,000 RPM). The supernatant was collected and assayed for leukotriene B4 levels using a commercial enzyme-linked immune-assay from Cayman Chemicals, Ann Arbor, Mich.

[2] = tested on: 8 mm diaphyseal segmental defect in the right femur; assay: Femur segmental defect repaired with scaffold impregnated with calcium sulfate containing a leukotriene pathway modifier; format: in vivo, Sprague-Dawley rats; settings: after 3 weeks of healing; local application in calcium sulfate, 1-5% w/w; FIG. 16
Description: Male Sprague-Dawley rats underwent surgery during which an 8 mm diaphyseal, segmental defect in the right femur was made as described by Rai et al. [Combination of platelet-rich plasma with polycaprolactone-tricalcium phosphate scaffolds for segmental bone defect repair. Journal of Biomedical Materials Research […]:888-899 (2007)]. The defect was repaired with a polycaprolactone-tricalcium phosphate scaffold (8 mm long×3 mm diameter; Osteopore International, Singapore) or the scaffold impregnated with calcium sulfate containing a leukotriene pathway modifier. […] Journal of Medicinal Chemistry 43:721-735 (2000)]; and LY-255283 (1% w/w), a potent and specific leukotriene B4 receptor antagonist [Herron et al. Leukotriene B4 receptor antagonists: the LY255283 series of hydroxyacetophenones. Journal of Medicinal Chemistry 35:1818-1828 (1992)]. Healing of the segmental defects was assessed after 3 weeks of healing by radiographs (FIG. 16).

[3] = tested on: critical-size (8 mm) femur segmental defect; assay: Critical-size femur segmental defect repaired with scaffold laden with ex vivo treated bone marrow; format: in vivo, Sprague-Dawley rats; settings: for mineralized tissue in the femur segmental defect on radiographs: 2 weeks after implantation, marrow treated ex vivo, versus vehicle-bone marrow scaffold control; for bone remodeling at the fracture site compared to control rats: FIG. 10, bone marrow aspirate treated ex vivo prior to administration
Method: Critical-size (8 mm) segmental defects were made in the right femur of 450-500 g male Sprague-Dawley rats. The defects were repaired as described by Rai et al. [Combination of platelet-rich plasma with polycaprolactone-tricalcium phosphate scaffolds for segmental defect repair. Journal of Biomedical Materials Research 81A:888-899 (2007)] except the polycaprolactone-tricalcium phosphate scaffolds were filled with autologous bone marrow that was treated ex vivo as described below rather than with platelet-rich plasma.
Following induction of anesthesia, bone marrow was harvested from the left femur of each rat. A medial peripatellar incision was made to the left femur and the patella was dislocated laterally to provide access to the femoral condyles. Using an 18 gauge needle, a hole was drilled into the femoral canal and the bone marrow collected into the bore of the 18 gauge needle. The marrow was forced from the syringe needle into a small test tube using 100 μl of saline containing 20 units of heparin. The harvested marrow was then treated with the dimethyl sulfoxide (DMSO) or AA-861 (1 μl of 100 mg/ml in DMSO) which is a 5-LO inhibitor. After 5 minutes, 20 μl of a thrombin and CaCl2 solution (1,000 units thrombin per ml in 10% CaCl2) was added to each marrow sample. Each marrow sample was gently mixed and applied to a polycaprolactone-tricalcium phosphate scaffold that was set upright in a 0.2 ml tube. Each marrow-laden scaffold was incubated at room temperature for 10 minutes to allow clotting to occur and was then inserted into the femoral defects.
Critical-size femoral defects were made in male Sprague-Dawley rats as described above in EXAMPLE 7. The defects were treated with bone marrow laden scaffolds as described above. […] Journal of Medicinal Chemistry 43:721-735 (2000)] (FIG. 10C), or with (c) LY-255283 (5 μl of a 1 mg/ml solution in DMSO) which is a leukotriene B4 receptor antagonist [Herron et al. Leukotriene B4 receptor antagonists: the LY255283 series of hydroxyacetophenones. Journal of Medicinal Chemistry 35:1818-1828 (1992)] (FIG. 10D).

[4] = tested on: Saos-2 cells; settings: in vitro; LTB4 at higher concentration (0.3-1 micromolar); cited from earlier work
[5] = tested on: closed femur fracture; assay: Closed femur fracture healing in rats treated with 5-LO inhibitors (radiographs, torsional mechanical testing); format: in vivo, Sprague-Dawley rats; settings: for fracture bridging / healing on radiographs: Example 4, FIG. 8, NDGA 30 mg/kg or AA-861 5 mg/kg twice daily until day 21, 3 weeks of healing; for greater peak torque than vehicle treated rats: Example 4, FIG. 8D, torsional mechanical testing after 5 weeks of healing, NDGA 30 mg/kg, AA-861 5 mg/kg; for mode of femur failure in torsional mechanical testing: Example 4, after 5 weeks of healing
Method: Sprague-Dawley rats (3 months old) underwent a standard closed femur fracture procedure as described in the art [Simon et al., Cyclo-oxygenase 2 function is essential for bone fracture healing. Journal of Bone and Mineral Research, 17: 963-976 (2002); Bonnarens and Einhorn, Production of a standard closed fracture in laboratory animal bone. Journal of Orthopaedic Research, 2: 97-101 (1984)]. The impending fracture was stabilized with an intramedullary stainless steel pin. Beginning 4 hours after fracture the rats were treated with 30 mg/kg of NDGA (nordihydrogaiaretic acid) in 1% methylcellulose (5-lipoxygenase inhibitor treatment group) or with carrier only (1% methylcellulose). The day after surgery and continuing until day 14 post-fracture, experimental rats were treated with 2 doses of NDGA (30 mg/kg), the first dose between […] and then again with another NDGA dose 8-10 hours later. Control rats were treated similarly but with carrier only (1% methylcellulose). Three weeks after fracture, the rats were sacrificed, the fractured femurs were harvested, and high resolution radiographs were made of the fractured femurs using a Packard Faxitron and Kodak MinR2000 mammography film. Two representative radiographs are shown in FIG. 7 for each treatment group: control and 5-lipoxygenase (5-LO) inhibitor treated.
Sprague-Dawley rats (3 months old) underwent a standard closed femur fracture procedure as described in the art (Simon et al., Cyclo-oxygenase 2 function is essential for bone fracture healing. Journal of Bone and Mineral Research, 17: 963-976 (2002); Bonnarens and Einhorn, Production of a standard closed fracture in laboratory animal bone. Journal of Orthopaedic Research, 2: 97-101 (1984)]. The impending fracture was stabilized with an intramedullary stainless steel pin. Beginning 4 hours after fracture the rats were treated with vehicle (1% methylcellulose) or inhibitors of 5-LO suspended in 1% methylcellulose. Inhibitor A (NDGA) was administered at 30 mg/kg and Inhibitor B (AA-861) was administered at 5 mg/kg. The day after surgery and continuing until day 21 post-fracture, experimental rats were treated with 2 doses of inhibitor (either A or B), the first dose between 8-10 AM and then again with another dose 8-10 hours later. Control rats were treated similarly but with carrier only (1% methylcellulose). Three weeks after fracture the rats were anesthetized and high resolution radiographs were made of the fractured femurs using a Packard Faxitron and Kodak MinR2000 mammography film (FIGS. 8A, 8B, and 8C). Five weeks after fracture the rats were sacrificed, femurs resected, and assayed for structural mechanical properties by torsional mechanical testing (FIG. 8D).

[6] = tested on: fetal rat calvaria (osteoblast) cells; settings: in vitro; cited from earlier work
[7] = tested on: mouse calvaria; settings: in vitro organ culture; cited from earlier work
[8] = tested on: primary rat calvaria (osteoblast) cultures; settings: in vitro; cited from earlier work
[9] = tested on: G292 cells; settings: in vitro; LTB4 at higher concentration (0.3-1 micromolar); cited from earlier work

Compound	activity of 5-lipoxygenase or LTA4 hydrolase, measured by the level of the LTB4 metabolite, in platelet-rich plasma [1]	bone formation in the segmental defect region on radiographs compared to scaffold-only group [2]	mineralized tissue in the femur segmental defect on radiographs [3]	bone remodeling at the fracture site compared to control rats [3]	Saos-2 cell proliferation [4]	alkaline phosphatase activity [6]	bone nodule formation [6]	other results
CC1=C(C)C(=O)C(CCCCC#CCCCC#CCO)=C(C)C1=O [AA-861, 2-(12-hydroxydodeca-5,10-diynyl)-3,5,6-trimethyl-1,4-benzoquinone]	significantly reduces	significantly more bone formation	more extensive mineralized tissue	more extensive bone remodeling	no effect	–	–	fracture bridging / healing on radiographs [5]: fractures healing faster; greater peak torque than vehicle treated rats [5]: 53%; mode of femur failure in torsional mechanical testing [5]: failed as boney unions
CCCCC/C=C\C\C=C/C=C/C=C/[C@@H](SC[C@H](N)C(=O)NCC(=O)O)[C@@H](O)CCCC(=O)O [LTD4, leukotriene D4]	–	–	–	–	–	no effect	no effect	–
CCCCC/C=C\C[C@@H](O)/C=C/C=C/C=C\[C@@H](O)CCCC(=O)O [LTB4, leukotriene B4]	–	–	–	–	promote proliferation	reduce	reduce	BMP2 induced increase in mouse calvaria thickness [7]: prevented; proliferation of primary rat calvaria (osteoblast) cultures [8]: reduces proliferation; G292 cell proliferation [9]: promote proliferation
CC(Cc1ccc(O)c(O)c1)C(C)Cc1ccc(O)c(O)c1 (centres unmarked) [NDGA, nordihydroguaiaretic acid]	–	–	–	–	–	–	–	fracture bridging / healing on radiographs [5]: fractures healing faster; greater peak torque than vehicle treated rats [5]: 22%; mode of femur failure in torsional mechanical testing [5]: failed as boney unions
CC(C)c1ccc2c(c1)c(SC(C)(C)C)c(CC(C)(C)C(=O)O)n2Cc1ccc(Cl)cc1 [MK-886, 3-[1-(4-chlorobenzyl)-3-t-butyl-thio-5-isopropylindol-2-yl]-2,2-dimethylpropanoic acid]	significantly reduces	significantly more bone formation	–	–	–	–	–	–
5-hydroxyeicosatetraenoic acid [5-HETE]	–	–	–	–	–	reduce	reduce	BMP2 induced increase in mouse calvaria thickness [7]: prevented
c1ccc(-c2ccc(OCCN3CCCC3)cc2)cc1 [SC-22716, 1-[2-(4-Phenylphenoxy)ethyl]pyrrolidine]	–	significantly more bone formation	more extensive mineralized tissue	more extensive bone remodeling	–	–	–	–
CC(c1cc2ccccc2s1)N(O)C(N)=O (centres unmarked) [zileuton, N-(1-benzo[b]thien-2-ylethyl)-N-hydroxyurea]	significantly reduces	–	–	more extensive bone remodeling	–	–	–	–
CCCCC/C=C\C\C=C/C=C/C=C/[C@@H](SC[C@H](NC(=O)CC[C@H](N)C(=O)O)C(=O)NCC(=O)O)[C@@H](O)CCCC(=O)O [LTC4, leukotriene C4]	–	–	–	–	no effect	–	–	proliferation of primary rat calvaria (osteoblast) cultures [8]: no effect; G292 cell proliferation [9]: promote proliferation
CCc1cc(C(C)=O)c(O)cc1OCCCCCC(C)(C)c1nnn[nH]1 [LY-255283, 1-(5-ethyl-2-hydroxy-4-(6-methyl-6-(1H-tetrazol-5-yl)-heptyloxy)phenyl)ethanone]	–	significantly more bone formation	some evident mineralized tissue	more extensive bone remodeling	–	–	–	–
